Laboratory results taken from ChEMBL document CHEMBL1201862, “PubChem BioAssay data set” (2004).
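Compound exposure: 48 hours, 5 concentrations, 96-well plates. GI50 = concentration required for 50% inhibition of growth.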 The source made the active and inactive calls. Cut-off read from the data, not from the text of the source: active = GI50 up to about 1.1 µM and inactive = higher.

Experiments:
Assay in all cases: growth of human tumour cells (NCI), 48 h
UO-31 = system: UO-31
TK-10 = system: TK-10
SNB-19 = system: SNB-19
DU-145 = system: DU-145
SW-620 = system: SW-620
HCC 2998 = system: HCC 2998
NCI/ADR-RES = system: NCI/ADR-RES
OVCAR-4 = system: OVCAR-4
CAKI-1 = system: CAKI-1
Malme-3M = system: Malme-3M
NCI-H23 = system: NCI-H23
SNB-75 = system: SNB-75
RPMI-8226 = system: RPMI-8226
NCI-H460 = system: NCI-H460
SK-OV-3 = system: SK-OV-3
HL-60 = system: HL-60

SMILES: CCOC(=O)N1CCN(Cc2cc(=O)n3ccc(C)cc3n2)CC1
- GI50 (UO-31): > 100 µM (inactive)
- GI50 (TK-10): > 100 µM (inactive)
- GI50 (SNB-19): > 100 µM (inactive)
- GI50 (DU-145): > 100 µM (inactive)
- GI50 (SW-620): > 100 µM (inactive)
- GI50 (HCC 2998): > 100 µM (inactive)
- GI50 (NCI/ADR-RES): > 100 µM (inactive)
- GI50 (OVCAR-4): > 100 µM (inactive)
- GI50 (CAKI-1): > 100 µM (inactive)
- GI50 (Malme-3M): > 100 µM (inactive)
- GI50 (NCI-H23): > 100 µM (inactive)
- GI50 (SNB-75): > 100 µM (inactive)
- GI50 (RPMI-8226): > 100 µM (inactive)
- GI50 (NCI-H460): > 100 µM (inactive)
- GI50 (SK-OV-3): > 100 µM (inactive)
- GI50 (HL-60): > 100 µM (inactive)

SMILES: CN1CCCN2CCN(C)CCN(CC1)CC2
- GI50 (UO-31): > 100 µM (inactive)
- GI50 (TK-10): > 100 µM (inactive)
- GI50 (SNB-19): > 100 µM (inactive)
- GI50 (DU-145): > 100 µM (inactive)
- GI50 (SW-620): > 100 µM (inactive)
- GI50 (HCC 2998): > 100 µM (inactive)
- GI50 (NCI/ADR-RES): > 100 µM (inactive)
- GI50 (OVCAR-4): > 100 µM (inactive)
- GI50 (CAKI-1): > 100 µM (inactive)
- GI50 (Malme-3M): > 100 µM (inactive)
- GI50 (NCI-H23): > 100 µM (inactive)
- GI50 (SNB-75): > 100 µM (inactive)
- GI50 (RPMI-8226): > 100 µM (inactive)
- GI50 (NCI-H460): > 100 µM (inactive)
- GI50 (SK-OV-3): > 100 µM (inactive)
- GI50 (HL-60): > 100 µM (inactive)

SMILES: O=C1C=C(OCCCCl)C(=O)c2c(O)ccc(O)c21
- GI50 (UO-31): 1.18 µM (inactive)
- GI50 (TK-10): 1.81 µM (inactive)
- GI50 (SNB-19): 1.8 µM (inactive)
- GI50 (DU-145): 0.303 µM (active)
- GI50 (SW-620): 0.277 µM (active)
- GI50 (HCC 2998): 1.91 µM (inactive)
- GI50 (NCI/ADR-RES): 2.65 µM (inactive)
- GI50 (OVCAR-4): 1.25 µM (inactive)
- GI50 (CAKI-1): 1.85 µM (inactive)
- GI50 (Malme-3M): 0.167 µM (active)
- GI50 (NCI-H23): 0.237 µM (active)
- GI50 (SNB-75): 1.4 µM (inactive)
- GI50 (RPMI-8226): 2.06 µM (inactive)
- GI50 (NCI-H460): 1.21 µM (inactive)
- GI50 (SK-OV-3): 2.24 µM (inactive)
- GI50 (HL-60): 0.792 µM (active)

SMILES: O=[N+]([O-])c1ccc(N/N=C(\c2ccccc2)c2ccccn2)nc1
- GI50 (UO-31): 0.817 µM (active)
- GI50 (SNB-19): 9.48 µM (inactive)
- GI50 (DU-145): 5.53 µM (inactive)
- GI50 (SW-620): 0.223 µM (active)
- GI50 (HCC 2998): 5.46 µM (inactive)
- GI50 (NCI/ADR-RES): 0.658 µM (active)
- GI50 (OVCAR-4): 18.7 µM (inactive)
- GI50 (CAKI-1): 0.497 µM (active)
- GI50 (Malme-3M): 0.0367 µM (active)
- GI50 (NCI-H23): 0.845 µM (active)
- GI50 (SNB-75): 7.06 µM (inactive)
- GI50 (RPMI-8226): 0.59 µM (active)
- GI50 (NCI-H460): 0.957 µM (active)
- GI50 (SK-OV-3): 4.86 µM (inactive)
- GI50 (HL-60): < 0.01 µM (active)

SMILES: Cc1cn(C2CC(O)C(COP(=O)(O)OC3CC(n4c[n+]([BH2-]C#N)c5c(=O)[nH]c(N)nc54)OC3CO)O2)c(=O)[nH]c1=O (centres undefined)
- GI50 (UO-31): > 100 µM (inactive)
- GI50 (TK-10): > 100 µM (inactive)
- GI50 (SNB-19): > 100 µM (inactive)
- GI50 (DU-145): > 100 µM (inactive)
- GI50 (SW-620): > 100 µM (inactive)
- GI50 (HCC 2998): > 100 µM (inactive)
- GI50 (NCI/ADR-RES): > 100 µM (inactive)
- GI50 (OVCAR-4): > 100 µM (inactive)
- GI50 (CAKI-1): > 100 µM (inactive)
- GI50 (Malme-3M): > 100 µM (inactive)
- GI50 (NCI-H23): > 100 µM (inactive)
- GI50 (SNB-75): > 100 µM (inactive)
- GI50 (RPMI-8226): > 100 µM (inactive)
- GI50 (NCI-H460): > 100 µM (inactive)
- GI50 (SK-OV-3): > 100 µM (inactive)
- GI50 (HL-60): > 100 µM (inactive)

SMILES: Cc1ccc(Nc2nc(N)nc3c2ncn3C2OC(CO)C(O)C2O)cc1 (centres undefined)
- GI50 (UO-31): > 100 µM (inactive)
- GI50 (TK-10): > 100 µM (inactive)
- GI50 (SNB-19): > 100 µM (inactive)
- GI50 (DU-145): > 100 µM (inactive)
- GI50 (SW-620): > 100 µM (inactive)
- GI50 (HCC 2998): > 100 µM (inactive)
- GI50 (NCI/ADR-RES): > 100 µM (inactive)
- GI50 (OVCAR-4): > 100 µM (inactive)
- GI50 (CAKI-1): > 100 µM (inactive)
- GI50 (Malme-3M): > 100 µM (inactive)
- GI50 (NCI-H23): > 100 µM (inactive)
- GI50 (SNB-75): > 100 µM (inactive)
- GI50 (RPMI-8226): > 100 µM (inactive)
- GI50 (SK-OV-3): > 100 µM (inactive)
- GI50 (HL-60): > 100 µM (inactive)

SMILES: Cc1nn(C(=O)c2ccc(Cl)cc2)c2c1C(c1cccc([N+](=O)[O-])c1)SC(=N)N2 (centres undefined)
- GI50 (TK-10): > 10 µM (inactive)
- GI50 (SNB-19): > 10 µM (inactive)
- GI50 (DU-145): > 10 µM (inactive)
- GI50 (SW-620): > 10 µM (inactive)
- GI50 (HCC 2998): > 10 µM (inactive)
- GI50 (NCI/ADR-RES): > 10 µM (inactive)
- GI50 (OVCAR-4): > 10 µM (inactive)
- GI50 (CAKI-1): > 10 µM (inactive)
- GI50 (Malme-3M): > 10 µM (inactive)
- GI50 (NCI-H23): > 10 µM (inactive)
- GI50 (SNB-75): > 10 µM (inactive)
- GI50 (RPMI-8226): > 10 µM (inactive)
- GI50 (NCI-H460): > 10 µM (inactive)
- GI50 (SK-OV-3): > 10 µM (inactive)
- GI50 (HL-60): > 10 µM (inactive)
